# Experimental data taken from article PMC11519908, “Luminescent Ln(III)-Metallopeptide Sensors for Monitoring Pseudomonas aeruginosa Elastase B Activity in Complex Biological Media” (ACS Sensors, 2024).
# How the values were obtained:
# [1] = tested on: supernatants from P. aeruginosa mutant strains deficient in LasB (LasB1, LasB2); settings: pH 8
# [2] = tested on: supernatants from the LasB-deficient P. aeruginosa mutants; settings: P1[Tb]: 0.5 mM probe, 50 mM CaCl2, HEPES buffer, 9 µL supernatant, RT, 1 h before injection
substance,measurement,setting,value
EGLAEW [P1[Tb]],change of luminescence over time with LasB-deficient P. aeruginosa supernatants,[1],no changes in the luminescence
same,integrity of probe with LasB-deficient P. aeruginosa supernatants (HPLC-MS),[2],remained intact
